Assay results published in patent US12258547B2, “Cell culture plate, method for preparing thereof and method for detecting a substance” (UPM-Kymmene Corporation, priority 2019, dated 2025).
Counter-ions that a name gives are not always drawn.

Experiments:
[1] = Experiments 2-3: HepaRG/BJ co-culture separated by GrowDex barrier, dosing via HepaRG, WST-1, BJ side; details: human, decrease of BJ viability, 10 μg/ml via HepaRG, 3 hrs
Text: (§1) Cell viability/cytotoxicity was always investigated using WST-1 assay. The assay principle is based on the conversion of the tetrazolium salt WST-1 into a colored dye by mitochondrial dehydrogenase enzymes. The soluble salt is released into the media. Within a given time period, the reaction produces a color change which is directly proportional to the amount of mitochondrial dehydrogenase in a given culture. As a result, the assay actually measures the net metabolic activity of cells. Theoretically, this is reflective of cell number • the more cells, the more dehydrogenase available to reduce the reagent. […]
(§2) The mean absorbances were calculated separately for each well and both sides of the barrier. The decision on the acceptability of the data was made individually for each well. The data of the well was accepted provided that the barrier functioned properly, i.e. the ratio of HepaRG and BJ absorbances at 450 nm was >2.0.
(§3) GrowDex barriers were prepared to split the wells of a 24-well plate into two “equally sized” compartments as follows. 250 μl GrowDex was pipetted to the wells (using positive displacement pipette) to construct the first layer of the barrier. The barriers were left to dry in the laminar hood for 1 hr with the lid open. Then a second layer was pipetted on the top of the first layer.
(§4) BJ cell suspension was prepared at a density of 70 000 cells/ml BJ cell culture medium, and 150 μl of this suspension was pipetted to the right side of the barriers resulting in 10 500 cells/well.
(§5) HepaRG suspension was prepared at a density of 2 million HepaRG cells/ml HepaRG® Thawing/Plating/General Purpose Medium 670. Medium was removed from the left side of the barrier. 150 μl HepaRG suspension, i.e., 300 000 cells was added to each well. The plate was gently agitated in back-and-forth and side-to-side manner, and the homogeneity of the cell distribution was ensured visually. The plate was placed back into cell culture incubator and the cells were let recover for 4 hrs before exposure.
(§6) Medium was carefully removed from the HepaRG cells (left side of the barrier), and replaced with 75 μl/well HepaRG TOX Medium/well. This was performed one well at a time.

BJ fibroblasts [2] = assay: as above; details: for MEAN absorbance at 450 nm / MEDIAN absorbance at 450 nm / viability, % of control: BJ cells
Text: as §1, §2, §3, §4, §5, §6

[3] = Experiment 1: WST-1 viability of BJ fibroblast monoculture, direct exposure; details: human
Text: (§7) Cell viability/cytotoxicity was always investigated using WST-1 assay. The assay principle is based on the conversion of the tetrazolium salt WST-1 into a colored dye by mitochondrial dehydrogenase enzymes. The soluble salt is released into the media. Within a given time period, the reaction produces a color change which is directly proportional to the amount of mitochondrial dehydrogenase in a given culture. As a result, the assay actually measures the net metabolic activity of cells. Theoretically, this is reflective of cell number • the more cells, the more dehydrogenase available to reduce the reagent.
(§8) BJ cell suspension was prepared at a density of 40 000 cells/ml in BJ cell culture medium. 100 μl of this suspension was pipetted to a 96-well plate resulting in 4000 cells/well.
(§9) Selegiline and paracetamol dilutions were prepared on the day of use. First, 1 mg/ml stocks were prepared from both drugs, then 200 and 20 μg/ml dilutions were prepared from paracetamol stock, and 200, 20, 10, 5 and 2 μg/ml dilutions from selegiline stock. The stocks and dilutions were prepared in BJ chemical dilution medium. Selegiline toxicity was studied more extensively than paracetamol, because there was no previous data of selegiline toxicity to BJ fibroblasts. Instead, paracetamol toxicity to human BJ fibroblasts has been extensively studied.
(§10) BJ cell culture medium was removed from the cells by dumping and blotting the plate carefully on sterile towel. Immediately, 50 μl BJ cell culture medium was added to all wells, and then 50 μl test item dilutions (selegiline or paracetamol) or 50 μl vehicle control. […] BJ chemical dilution medium was used as vehicle control. […] One of the plates was incubated for 3 hrs and the other for 20 hrs.
(§11) After the 3-hours or 20 hrs incubation, 10 μl WST-1 reagent was added into the wells. The plate was incubated for 2 hrs, thereafter absorbance was read at 450 nm.
(§12) Blank values (contained all reagents, including drugs, but no cells) were subtracted from the absorbance data. […] The statistical difference between untreated control and treated cells was assessed using t-test (SigmaPiot).

BJ fibroblasts [4] = assay: as above; details: for toxicity to BJ fibroblast monocultures: drug as such, without HepaRG treatment
Text: as §7, §8, §9, §10, §11, §12

[5] = Experiments 2-3: HepaRG/BJ co-culture separated by GrowDex barrier, dosing via HepaRG, WST-1, HepaRG side; type: cell-based; details: human
Procedure: (§13) The soluble salt is released into the media.
(§14) Eight barriers were prepared using this method. […] Four barriers were prepared using this method.
(§15) The plate was incubated for 1 hr.
(§16) This was performed one well at a time.
(§17) Absorbance was read using the Multipoint measurement.

HepaRG cells = assay: as above; type: cell-based; details: for MEAN absorbance at 450 nm / MEDIAN absorbance at 450 nm / viability, % of control: HepaRG
Procedure: as §13, §14, §15, §16, §17

BJ fibroblasts [6] = assay: Experiment 4: BJ cells exposed to direct or HepaRG-conditioned paracetamol, WST-1; type: cell-based, Human; details: 500 μg/ml, conditioned 20 hrs with HepaRG, 24 hrs exposure
Procedure: The HepaRG cells that were left from Experiment 3 were seeded to a 25 cm^2 cell culture flask, and cultured for 1 week. Medium (HepaRG induction medium) was renewed twice during the week.
The medium was removed from HepaRG cells (grown in a 25 cm^2 flask), and replaced by 2.5 ml of HepaRG TOX medium. Then 2.5 ml of 1 mg/ml paracetamol prepared in HepaRG TOX medium was added to the flask (final paracetamol concentration 500 μg/ml). HepaRG cells were incubated with paracetamol for 20 hrs.
The medium was removed from BJ cells, and replaced by 500 μg/ml paracetamol in BJ chemical dilution medium or 500 μg/ml HepaRG-conditioned-paracetamol in HepaRG TOX-medium. BJ chemical dilution medium and HepaRG TOX medium served as vehicle controls. All treatments were tested in 16 parallel wells. The exposure time was 24 hrs.
After the exposure, 10 μl WST-1 reagent was added to the wells. The plate was incubated for 2 hrs, and the absorbance was read at 450 nm.

[7] = 1 μg/ml selegiline via HepaRG, 3 hrs
[8] = 5 μg/ml selegiline via HepaRG, 3 hrs
[9] = 10 μg/ml selegiline via HepaRG, 3 hrs
[10] = 250 μg/ml paracetamol via HepaRG, 4 hrs
[11] = 250 μg/ml paracetamol via HepaRG, 20 hrs
[12] = 500 μg/ml paracetamol via HepaRG, 4 hrs
[13] = 500 μg/ml paracetamol via HepaRG, 20 hrs

C#CCN(C)[C@H](C)Cc1ccccc1 [selegiline, Selegiline hydrochloride]
cytotoxicity at 3 h, 10 μg/ml [1]: ~25%
effect on BJ viability (BJ fibroblasts [2]; 1 and 5 μg/ml via HepaRG, 3 hrs): seemed to increase
MEAN absorbance at 450 nm (BJ fibroblasts [2]; [7]): 1.429
MEDIAN absorbance at 450 nm (BJ fibroblasts [2]; [7]): 1.539
viability, % of control (BJ fibroblasts [2]; [7]): 141.43 % of control
MEAN absorbance at 450 nm (BJ fibroblasts [2]; [8]): 1.219
MEDIAN absorbance at 450 nm (BJ fibroblasts [2]; [8]): 1.243
viability, % of control (BJ fibroblasts [2]; [8]): 120.69 % of control
MEAN absorbance at 450 nm (BJ fibroblasts [2]; [9]): 0.760
MEDIAN absorbance at 450 nm (BJ fibroblasts [2]; [9]): 0.676
viability, % of control (BJ fibroblasts [2]; [9]): 75.19 % of control
cytotoxicity at 500 μg/ml [3]: ~10%
toxicity to BJ fibroblast monocultures (BJ fibroblasts [4]): not toxic
increase of BJ fibroblast viability (BJ fibroblasts [4]; lowest selegiline concentrations): ~10%
cytotoxicity at 3 h, 10 μg/ml ([5]; 10 μg/ml, 3 hrs, read-out: decrease of HepaRG viability): ~5%
effect on HepaRG viability (HepaRG cells; 1 and 5 μg/ml, 3 hrs): seemed to increase
MEAN absorbance at 450 nm (HepaRG cells; 1 μg/ml selegiline, 3 hrs): 3.486
MEDIAN absorbance at 450 nm (HepaRG cells; 1 μg/ml selegiline, 3 hrs): 3.794
viability, % of control (HepaRG cells; 1 μg/ml selegiline, 3 hrs): 114.23 % of control
MEAN absorbance at 450 nm (HepaRG cells; 5 μg/ml selegiline, 3 hrs): 3.344
MEDIAN absorbance at 450 nm (HepaRG cells; 5 μg/ml selegiline, 3 hrs): 3.588
viability, % of control (HepaRG cells; 5 μg/ml selegiline, 3 hrs): 109.57 % of control
MEAN absorbance at 450 nm (HepaRG cells; 10 μg/ml selegiline, 3 hrs): 2.892
MEDIAN absorbance at 450 nm (HepaRG cells; 10 μg/ml selegiline, 3 hrs): 3.078
viability, % of control (HepaRG cells; 10 μg/ml selegiline, 3 hrs): 94.77 % of control

CC(=O)Nc1ccc(O)cc1 [paracetamol, Paracetamol]
increase of BJ cell viability (BJ fibroblasts [2]; 250 μg/ml via HepaRG, 4 hrs): ~40%
increase of BJ viability (BJ fibroblasts [2]; 250 μg/ml via HepaRG, 20 hrs): ~30%
effect on BJ cell viability (BJ fibroblasts [2]; 500 μg/ml via HepaRG, short exposure (4 hrs)): did not affect cell viability
MEAN absorbance at 450 nm (BJ fibroblasts [2]; [10]): 1.685
MEDIAN absorbance at 450 nm (BJ fibroblasts [2]; [10]): 1.777
viability, % of control (BJ fibroblasts [2]; [10]): 140.89 % of control
MEAN absorbance at 450 nm (BJ fibroblasts [2]; [11]): 1.777
MEDIAN absorbance at 450 nm (BJ fibroblasts [2]; [11]): 1.801
viability, % of control (BJ fibroblasts [2]; [11]): 128.23 % of control
MEAN absorbance at 450 nm (BJ fibroblasts [2]; [12]): 1.188
MEDIAN absorbance at 450 nm (BJ fibroblasts [2]; [12]): 1.164
viability, % of control (BJ fibroblasts [2]; [12]): 99.34 % of control
MEAN absorbance at 450 nm (BJ fibroblasts [2]; [13]): 1.356
MEDIAN absorbance at 450 nm (BJ fibroblasts [2]; [13]): 1.325
viability, % of control (BJ fibroblasts [2]; [13]): 97.89 % of control
effect of HepaRG-treatment on BJ fibroblast viability (BJ fibroblasts [6]): minor effect
increase of BJ cell viability (BJ fibroblasts [4]; 500 μg/ml, 3 hrs exposure): ~9%
toxicity to BJ fibroblast monocultures (BJ fibroblasts [4]): not toxic
effect on viability of BJ fibroblasts (BJ fibroblasts [4]; up to 500 μg/ml, 3 and 20 hrs): did not reduce the viability
cytotoxicity at 4 h, 250 μg/ml ([5]; 250 μg/ml, 4 hrs, read-out: decrease of HepaRG viability): ~15%
cytotoxicity at 20 h, 500 μg/ml ([5]; highest concentration (500 μg/ml), 20 hrs, read-out: reduction of HepaRG viability): ~10%
effect on HepaRG cell viability (HepaRG cells; 500 μg/ml, short exposure (4 hrs)): did not affect cell viability
MEAN absorbance at 450 nm (HepaRG cells; 250 μg/ml paracetamol, 4 hrs): 3.571
MEDIAN absorbance at 450 nm (HepaRG cells; 250 μg/ml paracetamol, 4 hrs): 3.513
viability, % of control (HepaRG cells; 250 μg/ml paracetamol, 4 hrs): 85.58 % of control
MEAN absorbance at 450 nm (HepaRG cells; 250 μg/ml paracetamol, 20 hrs): 4.196
MEDIAN absorbance at 450 nm (HepaRG cells; 250 μg/ml paracetamol, 20 hrs): 4.239
viability, % of control (HepaRG cells; 250 μg/ml paracetamol, 20 hrs): 105.78 % of control
MEAN absorbance at 450 nm (HepaRG cells; 500 μg/ml paracetamol, 4 hrs): 4.074
MEDIAN absorbance at 450 nm (HepaRG cells; 500 μg/ml paracetamol, 4 hrs): 4.134
viability, % of control (HepaRG cells; 500 μg/ml paracetamol, 4 hrs): 97.65 % of control
MEAN absorbance at 450 nm (HepaRG cells; 500 μg/ml paracetamol, 20 hrs): 3.606
MEDIAN absorbance at 450 nm (HepaRG cells; 500 μg/ml paracetamol, 20 hrs): 3.771
viability, % of control (HepaRG cells; 500 μg/ml paracetamol, 20 hrs): 90.91 % of control
